The conditions of data set [1]: acids formed by oxidation of POH/PCO; cited from earlier work.
For data set [2] the following is noted: in vivo. An excerpt: (§1) The antimicrobial effectiveness of POH diminishes in more dilute solutions. […] However, POH at concentrations equal to and higher than 4% will cause skin irritation and thus are not practical for clinical applications. Therefore, the highest concentration proposed is 3% to maintain a practical clinical range.
Data set [3] has as its system all microorganisms. In words: Challenge of antimicrobial effectiveness of POH by concentration. The class given is cell-based.
From the text: as §1

For data set [4] the following is noted: rats, prior systemic studies; cited from earlier work.
The conditions of data set [5]: humans, dogs, and rats; cited from earlier work.

For the molecule `C=C(C)C1CCC(C(=O)O)CC1` (stereo not shown) [Dihydroperillic], the antimicrobial activity result in data set [1] is recorded as “lose the antimicrobial activity”.
For the molecule `C=C(C)[C@@H]1CC=C(C(=O)O)CC1` [Perillic], the antimicrobial activity result in data set [1] is listed as “lose the antimicrobial activity”.
For `C=C(C)[C@@H]1CC=C(CO)CC1` [Perillyl alcohol, perillyl alcohol], in data set [2], the “concentration that will cause skin irritation” value is at least 4%. In addition, the antimicrobial effectiveness result in data set [3] (0.1% concentration) was “reasonable against all microorganisms”; in data set [3] (over 90% concentrations) it was “eradicating the microorganisms completely”. Further, in data set [4], the “metabolization, detection of parent compound” value is on record as “not detected”. Further, in data set [5], the metabolization result is recorded as “rapidly metabolized”.

The record behind these values is patent publication US20250319047A1, “ANTIMICROBIAL TREATMENT AND PREVENTION BY PERILLYL ALCOHOL AND DERIVATIVES” (priority 2024, published 2025).
